Measurements from ChEMBL document CHEMBL1158146, “Oppositines A and B, sesquiterpene pyridine alkaloids from a Sri Lankan Pleurostylia opposita” (J Nat Prod, 2006).
Active and inactive are the calls of the source. No cut-off for these calls is given here.

Tests used:
[1] = biological target: Hypoxia-inducible factor 1-alpha (Homo sapiens) (UniProt Q16665); experiment: Inhibition of HIF1alpha
[2] = Cytotoxicity against human HCT 116 cells after 48 hrs by MTT assay; format: functional, cell-based; settings: HCT-116, 48 h
[3] = system: Human immunodeficiency virus; experiment: Antiviral activity against HIV upto 10 ug/mL; format: functional, organism-based

Chain of Hypoxia-inducible factor 1-alpha (Homo sapiens) (Q16665 whole entry, looked up): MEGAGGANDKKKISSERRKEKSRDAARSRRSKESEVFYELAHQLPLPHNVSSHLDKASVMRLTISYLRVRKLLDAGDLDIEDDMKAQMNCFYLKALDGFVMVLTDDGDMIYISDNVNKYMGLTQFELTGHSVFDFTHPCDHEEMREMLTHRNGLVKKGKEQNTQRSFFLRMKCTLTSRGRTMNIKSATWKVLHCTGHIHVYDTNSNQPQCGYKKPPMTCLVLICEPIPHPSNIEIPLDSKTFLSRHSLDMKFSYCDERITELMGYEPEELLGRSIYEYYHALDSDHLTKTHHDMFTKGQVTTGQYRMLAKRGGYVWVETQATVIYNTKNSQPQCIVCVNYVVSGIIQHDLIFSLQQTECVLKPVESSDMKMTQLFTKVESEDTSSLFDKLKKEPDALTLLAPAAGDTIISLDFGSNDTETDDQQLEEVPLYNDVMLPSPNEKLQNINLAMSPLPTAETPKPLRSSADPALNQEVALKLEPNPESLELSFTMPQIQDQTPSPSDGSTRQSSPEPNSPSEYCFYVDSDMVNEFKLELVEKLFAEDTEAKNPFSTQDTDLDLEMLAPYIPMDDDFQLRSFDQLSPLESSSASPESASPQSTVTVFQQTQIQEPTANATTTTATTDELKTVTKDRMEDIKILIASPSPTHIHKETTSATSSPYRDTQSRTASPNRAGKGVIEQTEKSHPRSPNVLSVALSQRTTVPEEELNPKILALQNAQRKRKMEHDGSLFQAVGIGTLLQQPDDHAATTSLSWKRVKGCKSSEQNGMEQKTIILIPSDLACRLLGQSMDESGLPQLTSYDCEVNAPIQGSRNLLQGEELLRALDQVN

Activity [1] | SMILES | EC50 [2] [µM] | Activity [3]
inactive | CCC1CCC(=O)O[C@H]2[C@H](OC(C)=O)[C@H](OC(=O)c3ccccc3)[C@@]3(COC(C)=O)[C@H](OC(C)=O)[C@H](OC(C)=O)[C@@H]4[C@@H](OC(C)=O)[C@]3(O[C@]4(C)COC(=O)c3cccnc31)[C@@H]2C (stereo partly specified) [OPPOSITINE B] | 26 | inactive
inactive | CCC1CCC(=O)O[C@H]2[C@H](OC(C)=O)[C@H](OC(=O)c3ccccc3)[C@@]3(COC(C)=O)[C@H](OC(C)=O)[C@H](OC(C)=O)[C@@H]4[C@@H](OC(C)=O)[C@]3(O[C@]4(C)COC(=O)c3cccnc31)[C@@]2(C)O (stereo partly specified) [OPPOSITINE A] | 27 | inactive
